Test system: Hair follicles
Test: Activity of actives on hair follicle growth (cultured scalp hair follicles, elongation by image analysis)
Format: cell-based
Details: for Growth: average elongation as percentage of control group (=100), 6 days of cultivation (5 of treatment)
Method: Hair follicles were taken from a single donor's scalp sample and transferred in sterile 24 well plates to be cultivated by using a modified Williams' Medium E. Cultivation took place for six days, while the experimental treatment of the follicles started 24 hours from the beginning of the cultivation. Hair follicles were selected for the experiments after 18 h of cultivation. Only those follicles showing a good vital stage and a growth of not less than 0.2 mm were considered suitable to be maintained in culture. All experimental groups and the control were prepared comprising 12 to 18 follicles, plated in 24-well plates at a density of 3 hair follicles/well. The hair follicles showing evident signs of sufferance during the culture for reasons not dependent on the experimental treatment were excluded from the final analysis.
The treatments consisted of mOKG concentrations varying from 0.001 to 0.1% b.w.
The growth performances observed in the treated hair follicles were compared to a control group cultured in the same culture medium free from OMG.
The experiment was terminated after 6 days of cultivation (5 of treatment). The growth of the hair follicles was studied by microphotography and subsequently determined by image analysis.
The average elongation detected in the experimental groups was expressed as percentage value of the growth performed by the control group. The statistical significance of the effects produced by the treatments was evaluated by means of analysis of variance (ANOVA) according the Duncan's method.

[1] = Conc. 0.001% b.w. in culture medium
[2] = Conc. 0.01% b.w. in culture medium
[3] = Conc. 0.1% b.w. in culture medium

| Molecule | Growth [1] | Growth [2] | Growth [3] | Factor between effective concentrations (mOKG 0.001% b.w. vs OKG 0.1% b.w.) (mOKG significantly effective at 0.001% b.w. as OKG at 0.1% b.w.) |
| --- | --- | --- | --- | --- |
| NCCC[C@H](N)C(=O)O.O=C(O)CCC(=O)C(=O)O [Mono Ornithine Ketoglutarate, Mono-Ornithine (alpha-) ketoglutarate] | 112% | 120% | 122% | 100 |
| O=C(O)CCC(=O)C(=O)O [Alpha-ketoglutarate] | 101% | 103% | 104% | – |
| Cl.NCCC[C@H](N)C(=O)O [Ornithine hydrochloride] | 100% | 102% | 106% | – |
| Di Ornithine Ketoglutarate | 101% | 107% | 116% | – |
